PMC4393269, “Carvacrol Codrugs: A New Approach in the Antimicrobial Plan” (PLoS ONE, 2015)
In brackets after ≈: the same amount, converted by molar mass. Where two headings read alike, the source gives them in different places.

Key:
C. albicans ATCC 10231 [1] = assay: Antibiofilm assay on established biofilm (BIC/BEC); assay type: cell-based
Protocol: (§1) The efficacy on established biofilm was evaluated by determining Biofilm Inhibitory Concentration (BIC) and Biofilm Eradication Concentration (BEC) according to the method described by Johnson et al. with some modifications. Bacterial suspensions, grown in Tryptic soy broth supplemented with 0.5% (v/v) glucose at logarithmic phase, as well as C. albicans grown in RPMI 1640 plus 2% glucose, were incubated on flat-bottomed microtiter plates at a concentration of 5 x 10^5 CFU/mL. After 24 h of incubation at 37°C, the planktonic cells were gently removed and wells were washed with sterile phosphate-buffered saline solution (PBS) pH 7.3 and filled with carvacrol, carvacrol codrug 4, Ac-Cys(Allyl)-OH with dilutions ranging from the MIC values to a maximum concentration of 50 mg/mL. The OD600 was measured at time 0 and after incubation for 24 h at 37°C. The BIC values were determined as the lowest concentrations where no growth occurred in the supernatant fluid, confirmed by no increase in optical density compared with the initial reading. The BEC values were determined as the lowest concentrations at which no bacterial growth occurred on Tryptic soy agar for bacteria and on Sabouraud agar for C. albicans. Data were obtained from at least three independent experiments performed in duplicate.

S. aureus ATCC 29213 [2] = assay: Antibiofilm assay on established biofilm (BIC/BEC); assay type: cell-based; conditions: S. aureus ATCC 29213 established biofilm
Protocol: as §1

E. coli ATCC 8739 [3] = assay: Antibiofilm assay on established biofilm (BIC/BEC); assay type: cell-based
Protocol: as §1

[4] = tested on: S. epidermidis ATCC 35984; assay: Antibiofilm assay on established biofilm (BIC/BEC); assay type: cell-based
Protocol: as §1

C. albicans ATCC 10231 [5] = assay: Transmission electron microscopy; assay type: cell-based; conditions: 12.5 mg/mL for 3 h
Source text: (§2) For transmission electron microscopy, microrganisms were fixed with 2.5% glutaraldehyde in 0.1 M cacodylate buffer, postfixed with 1% OsO4, dehydrated in graded ethanol and embedded in Epon 812. Ultrathin sections (60 to 80 nm) were then mounted on 200-mesh copper grids and stained with uranyl acetate and lead citrate for ultrastructural observation. Sections were photographed using a Philips 268 D electron microscope (FEI).

S. aureus ATCC 29213 [6] = assay: Transmission electron microscopy; assay type: cell-based; conditions: 12.5 mg/mL for 3 h
Source text: as §2

E. coli ATCC 8739 [7] = assay: Transmission electron microscopy; assay type: cell-based; conditions: 12.5 mg/mL for 3 h
Source text: as §2

[8] = Kinetics of chemical hydrolysis in buffers; assay type: physicochemical; conditions: for half-life at 9.1 µM: read-out: t½ (converted)
Protocol: (§3) The HPLC system consisted of a Waters 600 HPLC pump (Waters Corporation, Milford, MA, USA), equipped with a Waters 2996 photodiode array detector. The column was a Kinetex RP-C8 column (3.0 x 150 mm, 5 μm). The mobile phase consisted of 0.1% TFA in acetonitrile/0.1% TFA in 95% H2O and 5% acetonitrile 50:50, under isocratic conditions at a flow rate of 1 mL/min. The UV detector was set at a length of 220 nm.
[…] Reactions were initiated by adding 1 mL of 10^-4 M stock solution (in acetonitrile) of the compound to 10 mL of the appropriate aqueous buffer solution, containing 20% acetonitrile. At appropriate time intervals, samples of 20 μL were withdrawn and analyzed by HPLC. Pseudo-first-order rate constants (kobs) for the hydrolysis of the compounds were then calculated from the slopes of the linear plots of log (% residual compound) against time. The experiments were run in triplicate and the mean values of the rate constants were calculated.

Water solubility (HPLC) = assay type: physicochemical; conditions: thermodynamic from solid, room temperature, mean of three experiments (SD)
Protocol: as §3, with “nm. […] Then the mixture was filtered using a Millipore filter (0.45 μm) and the concentration of the compound in its saturated solution was determined by HPLC analysis.” for “nm.”

[9] = tested on: human red blood cells (h-RBC); assay: Hemolytic activity; assay type: cell-based
Protocol: Experimental protocols to study hemolysis on human red cells were approved by Ethics Committee of the University “G. d’Annunzio” Chieti-Pescara. Human red cells were from two volunteers, who signed the informed consent for this study.
Hemolytic activity of carvacrol codrugs 1–10 was tested against human red blood cells (h-RBC). Fresh human blood, collected with EDTA, was centrifuged at 3000 rpm for 5 min then washed three times with PBS pH 7.3. Red blood cells were diluted to 4% in PBS and incubated with different codrugs concentrations ranging from 25 to 0.05 mg/mL. After 1 h of incubation at 37°C, the suspensions were sedimented by centrifugation and the release of hemoglobin was determined by absorbance measurement at 405 nm and compared with a 0% hemolysis control (PBS) and a 100% hemolysis control (PBS with 1% v/v Triton X-100). The percentage of hemolysis was calculated using the following equation: Hemolysis (%) = [(OD405sample - OD4050% lysis control)/(OD405100% lysis control - OD4050% lysis contro)] X 100

[10] = Kinetics of enzymatic hydrolysis in plasma; assay type: in vitro ADME; conditions: 37°C; for half-life at 40 µg/mL: pH 7.4, read-out: t½ (converted)
Protocol: as §3
The enzymatic hydrolysis was evaluated in human and rat plasma. […] A volume of 200 μL of this solution was added with pre-heated (37°C) plasma fractions (4 mL) previously diluted with 0.02 M phosphate buffer (pH 7.4) to give a final volume of 5 mL (80% plasma). Aliquots (100 μL) were taken at various times and deproteinized by mixing with 200 μL of 0.01 M HCl in methanol. After centrifugation for 5 min at 5000 × g, 10 μL of the supernatant layer were analysed by chromatography as described above. The amounts of remaining intact compound were plotted as a function of incubation time.

- BEC as multiple of MIC (C. albicans ATCC 10231 [1]; C. albicans ATCC 10231): 8MIC
- BIC as multiple of MIC (C. albicans ATCC 10231 [1]; C. albicans ATCC 10231): 8MIC
- BEC as multiple of MIC (E. coli ATCC 8739 [3]; E. coli ATCC 8739): 16MIC
- BIC as multiple of MIC (E. coli ATCC 8739 [3]; E. coli ATCC 8739): 8MIC
- BEC as multiple of MIC ([4]; S. epidermidis ATCC 35984): 8MIC
- BIC as multiple of MIC ([4]; S. epidermidis ATCC 35984): 2MIC
- half-life at 9.1 µM ([8]; aqueous buffer pH 5.0, pH 5.0, 37°C): 62.1 h
- half-life at 9.1 µM ([8]; hydrochloric acid buffer pH 1.3 (non-enzymatic SGF), pH 1.3, 37°C): 75.4 h
- kobs ([8]; pH 1.3, 37°C): 0.009 (± 0.001) h^-1
- kobs ([8]; pH 7.4, 37°C): 0.030 (± 0.001) h^-1
- half-life at 9.1 µM ([8]; phosphate buffer pH 7.4 (non-enzymatic SIF), pH 7.4, 37°C): 22.9 h
- solubility at 15 min (Water solubility (HPLC)): 150 µg/mL (≈ 447 µM)
- kobs ([10]; 80% human plasma): 1.38 (± 0.03) h^-1
- kobs ([10]; 80% rat plasma): 1.38 (± 0.05) h^-1
- half-life at 40 µg/mL ([10]; 80% human plasma): 0.5 h
- half-life at 40 µg/mL ([10]; 80% rat plasma): 0.5 h
SMILES: C=CCSC[C@H](NC(C)=O)C(=O)Oc1cc(C(C)C)ccc1C [codrug 4, N-Ac-Cys(Allyl)-CAR]
- BEC (C. albicans ATCC 10231 [1]; C. albicans ATCC 10231 established biofilm): 10 mg/mL
- BIC (C. albicans ATCC 10231 [1]; C. albicans ATCC 10231 established biofilm, 24 h): 10 mg/mL
- BEC (S. aureus ATCC 29213 [2]): 10 mg/mL
- BIC (S. aureus ATCC 29213 [2]; 24 h): 5 mg/mL
- BEC (E. coli ATCC 8739 [3]; E. coli ATCC 8739 established biofilm): 40 mg/mL
- BIC (E. coli ATCC 8739 [3]; E. coli ATCC 8739 established biofilm, 24 h): 20 mg/mL
- BEC ([4]; S. epidermidis ATCC 35984 established biofilm): 20 mg/mL
- BIC ([4]; S. epidermidis ATCC 35984 established biofilm, 24 h): 5 mg/mL
- cell morphology by TEM (C. albicans ATCC 10231 [5]): disintegration of the membranes
- cell morphology by TEM (S. aureus ATCC 29213 [6]): induced abnormal septum formation with irregular features
- cell morphology by TEM (E. coli ATCC 8739 [7]): alteration of outer membrane
- concentration at which hemolytic activity is over 50% ([9]; 4% h-RBC, 1 h at 37°C): 5000 µg/mL
- hemolysis / toxicity at MIC values (in words) ([9]; h-RBC, at MIC values): not toxic at the MIC values
